Measured values taken from patent US6472391B2, “Nitrogen-containing heterocyclic compounds” (Millennium Pharmaceuticals, Inc., priority 1996, dated 2002).

melting point [°C]	Structure (SMILES)
180 to 181	COc1cc2ncnc(N3CCN(C(=O)Nc4cccc(C(F)(F)F)c4)CC3)c2cc1OC [Compound 162, 4-(6,7-Dimethoxy-4-quinazolinyl)-N-(3-trifluoromethylphenyl)-1-piperazinecarboxamide]
171 to 172	COc1cc2ncnc(N3CCN(C(=S)Nc4cccc(C(F)(F)F)c4)CC3)c2cc1OC [Compound 163, 4-(6,7-Dimethoxy-4-quinazolinyl)-N-(3-trifluoromethylphenyl)-1-piperazinethiocarboxamide]
214 to 216	C=Cc1ccc(NC(=O)N2CCN(c3ncnc4cc(OC)c(OC)cc34)CC2)cc1 [Compound 164, 4-(6,7-Dimethoxy-4-quinazolinyl)-N-(4-vinylphenyl)-1-piperazinecarboxamide]
100 to 102	COc1cc2ncnc(N3CCN(C(=S)NCc4cccc(F)c4)CC3)c2cc1OC [Compound 171, 4-(6,7-Dimethoxy-4-quinazolinyl)-N-(3-fluorobenzyl)-1-piperazinethiocarboxamide]
200 to 201	COc1cc2ncnc(N3CCN(C(=O)NCc4ccc(F)cc4)CC3)c2cc1OC [Compound 172, 4-(6,7-Dimethoxy-4-quinazolinyl)-N-(4-fluorobenzyl)-1-piperazinecarboxamide]
222 to 224	COc1cc2ncnc(N3CCN(C(=S)Nc4cccc(Cl)c4)CC3)c2cc1OC [Compound 175, N-(3-Chlorophenyl)-4-(6,7-dimethoxy-4-quinazolinyl)-1-piperazinethiocarboxamide]
220 to 222	COc1cc2ncnc(N3CCN(C(=S)Nc4cccc(Br)c4)CC3)c2cc1OC [Compound 181, N-(3-Bromophenyl)-4-(6,7-dimethoxy-4-quinazolinyl)-1-piperazinethiocarboxamide]
170 to 171	COc1cc2ncnc(N3CCN(C(=S)Nc4ccc(Br)cc4)CC3)c2cc1OC [Compound 182, N-(4-Bromophenyl)-4-(6,7-dimethoxy-4-quinazolinyl)-1-piperazinethiocarboxamide]
211 to 212	COc1cc2ncnc(N3CCN(C(=O)NCc4ccc(Br)cc4)CC3)c2cc1OC [Compound 184, N-(4-Bromobenzyl)-4-(6,7-dimethoxy-4-quinazolinyl)-1-piperazinecarboxamide]
205 to 208	COc1cc2ncnc(N3CCN(C(=O)Nc4cccc(I)c4)CC3)c2cc1OC [Compound 186, 4-(6,7-Dimethoxy-4-quinazolinyl)-N-(3-iodophenyl)-1-piperazinecarboxamide]
160 to 161	COc1cc2ncnc(N3CCN(C(=S)Nc4ccc(Br)c(C)c4)CC3)c2cc1OC [Compound 191, N-(4-Bromo-3-methylphenyl)-4-(6,7-dimethoxy-4-quinazolinyl)-1-piperazinethiocarboxamide]
200 to 201	COc1cc2ncnc(N3CCN(C(=O)Nc4ccc(F)c(Cl)c4)CC3)c2cc1OC [Compound 193, N-(3-Chloro-4-fluorophenyl)-4-(6,7-dimethoxy-4-quinazolinyl)-1-piperazinecarboxamide]
196 to 197	COc1ccc(NC(=S)N2CCN(c3ncnc4cc(OC)c(OC)cc34)CC2)cc1 [Compound 196, 4-(6,7-Dimethoxy-4-quinazolinyl)-N-(4-methoxyphenyl)-1-piperazinethiocarboxamide]
146 to 147	COc1cccc(CNC(=S)N2CCN(c3ncnc4cc(OC)c(OC)cc34)CC2)c1 [Compound 197, 4-(6,7-Dimethoxy-4-quinazolinyl)-N-(3-methoxybenzyl)-1-piperazinethiocarboxamide]
147 to 148	COc1ccc(CNC(=O)N2CCN(c3ncnc4cc(OC)c(OC)cc34)CC2)cc1 [Compound 198, 4-(6,7-Dimethoxy-4-quinazolinyl)-N-(4-methoxybenzyl)-1-piperazinecarboxamide]
218 to 220	CCCOc1ccc(NC(=O)N2CCN(c3ncnc4cc(OC)c(OC)cc34)CC2)cc1 [Compound 201, 4-(6,7-Dimethoxy-4-quinazolinyl)-N-(4-propoxyphenyl)-1-piperazinecarboxamide]

More lines, now with the values behind:

Structure (SMILES)	melting point [°C]
COc1cc2ncnc(N3CCN(C(=S)Nc4ccc(C(F)(F)F)cc4)CC3)c2cc1OC [Compound 159, 4-(6,7-Dimethoxy-4-quinazolinyl)-N-(4-trifluoromethylphenyl)-1-piperazinethiocarboxamide]	117 to 119
COc1cc2ncnc(N3CCN(C(=O)NCc4ccc(C(F)(F)F)cc4)CC3)c2cc1OC [Compound 160, 4-(6,7-Dimethoxy-4-quinazolinyl)-N-(4-trifluoromethylbenzyl)-1-piperazinecarboxamide]	195 to 197
COc1cc2ncnc(N3CCN(C(=S)NCc4ccc(C(F)(F)F)cc4)CC3)c2cc1OC [Compound 161, 4-(6,7-Dimethoxy-4-quinazolinyl)-N-(4-trifluoromethylbenzyl)-1-piperazinethiocarboxamide]	216 to 217
CCC[C@H]1CC[C@H](c2ccc(NC(=S)N3CCN(c4ncnc5cc(OC)c(OC)cc45)CC3)cc2)CC1 [Compound 169, 4-(6,7-Dimethoxy-4-quinazolinyl)-N-[trans-4-(4-propylcyclohexyl)phenyl]-1-piperazinethiocarboxamide]	106 to 109
COc1cc2ncnc(N3CCN(C(=S)NCc4ccc(F)cc4)CC3)c2cc1OC [Compound 173, 4-(6,7-Dimethoxy-4-quinazolinyl)-N-(4-fluorobenzyl)-1-piperazinethiocarboxamide]	217 to 218
COc1cc2ncnc(N3CCN(C(=S)NCc4ccccc4Cl)CC3)c2cc1OC [Compound 176, N-(2-Chlorobenzyl)-4-(6,7-dimethoxy-4-quinazolinyl)-1-piperazinethiocarboxamide]	175 to 176
COc1cc2ncnc(N3CCN(C(=S)NC(=O)c4ccc(Cl)cc4)CC3)c2cc1OC [Compound 179, N-(4-Chlorobenzoyl)-4-(6,7-dimethoxy-4-quinazolinyl)-1-piperazinethiocarboxamide]	166 to 168
COc1cc2ncnc(N3CCN(C(=S)NCc4ccc(Br)cc4)CC3)c2cc1OC [Compound 185, N-(4-Bromobenzyl)-4-(6,7-dimethoxy-4-quinazolinyl)-1-piperazinethiocarboxamide]	217 to 218
COc1cc2ncnc(N3CCN(C(=S)NCc4ccc(C)c(Cl)c4)CC3)c2cc1OC [Compound 190, N-(3-Chloro-4-methylbenzyl)-4-(6,7-dimethoxy-4-quinazolinyl)-1-piperazinethiocarboxamide]	108 to 110
COc1cc2ncnc(N3CCN(C(=S)NCc4ccc(Cl)c(Cl)c4)CC3)c2cc1OC [Compound 195, N-(3,4-Dichlorobenzyl)-4-(6,7-dimethoxy-4-quinazolinyl)-1-piperazinethiocarboxamide]	197 to 200
COc1ccc(CNC(=S)N2CCN(c3ncnc4cc(OC)c(OC)cc34)CC2)cc1 [Compound 199, 4-(6,7-Dimethoxy-4-quinazolinyl)-N-(4-methoxybenzyl)-1-piperazinethiocarboxamide]	201 to 204
CCOc1ccc(CNC(=O)N2CCN(c3ncnc4cc(OC)c(OC)cc34)CC2)cc1 [Compound 200, 4-(6,7-Dimethoxy-4-quinazolinyl)-N-(4-ethoxybenzyl)-1-piperazinecarboxamide]	176 to 177
